This note sets out measurements from patent US12409304B2, “Drug delivery devices with drug-permeable component and methods” (TARIS Biomedical LLC, priority 2013, dated 2025).

The nature of one series: physchem. The note with it: 37 °C, water.
Series [1] in a line: In vitro drug permeation from Tecophilic film pouches loaded with a gemcitabine tablet (Example 1). In kind it is physicochemical. The note with it: DI water at 37° C. Here is the method:
Pouches formed of Tecophilic™ film and loaded with gemcitabine (GEM) were tested in vitro for drug permeation. The effect of gamma irradiation on these pouches was also studied. The pouches were made of HP-93A-100 and HP-60D-60 films with thickness of 0.5 mm (films provided by Lubrizol) (http://www.lubrizol.com/Medical/Products/Tecophilic.html). These thermoplastic polyurethanes (TPUs) were selected for their biocompatibility and ability to absorb equilibrium water content up to 100% of the weight of dry resin, as well as other properties. The material properties of the film materials used are given below in Table 1. Each pouch was made out of 2 films which were heat-sealed at all four edges of each pouch after loading each pouch with a single tablet of gemcitabine HCl or base formulated as follows: (1) Gemcitabine HCl: 89% GEM HCl, 10% Isomalt, 1% Lubritab (water insoluble), or […] Some of the pouches were gamma irradiated (25 kGy). The pouches were then placed into 21 mL DI water at 37° C. Thereafter, at each time point, 5× inversion, 1 mL sample was taken out followed by a 1 mL DI water refill.

Series [2] can be described thus: In vitro release from Tecophilic film pouches loaded with gemcitabine HCl and urea tablets (Example 1A). The series is classed as physicochemical. The note with it: pouches with 1 gemcitabine HCl tablet and 4 urea tablets, DI water at 37° C. Here is the method: Pouches constructed as in Example 1 were made, except each was loaded with 1 gemcitabine (GEM) HCl tablet and 4 tablets of urea. The pouches were then placed into 21 mL DI water at 37° C. Thereafter, at each time point, 5× inversion, 1 mL sample was taken out followed by a 1 mL DI water refill.

Series [3] is described as follows: In vitro gemcitabine release from one-module and four-module devices with end wall disks (Example 5). The series is classed as physicochemical. The note with it: one module device, jar rotated at 4 rpm or not. The procedure: There were three experimental groups tested: 1) one module device with the releasing jar being rotated in the rotator at 4 rpm ('Rotator'), 2) one module device without the jar rotated ('Static'), and 3) four module device without the jar rotated ('Static'). Each module is comprised of silicone tube made of MED-4750 (Nusil) with the dimensions of 2.64 mm ID and 0.20 mm wall thickness. Multiple gemcitabine HCl tablets with 2.6 mm OD were loaded into the silicone tube with each module having a total gemcitabine HCl payload of approximately 190 mg. The tablet formulation was 90% gemcitabine HCl, 5% PVP, 2.5% Neusilin, and 2.5% magnesium stearate. […] Thermoplastic Polyurethanes) at each end of the tablet drug core. The dimensions of each disk were approximately 0.5 mm thickness and 3.0 mm OD. The OD (3.0 mm) of the disks was larger than the silicone tube ID (2.64 mm), and so the disks were frictionally fit in the silicone tube. Each module has a silicone outer washer, made of MED-4780 (Nusil), located next to each disk with silicone adhesive (MED3-4213) applied around the washer, to stabilize the outward migration of the disk. […] In addition, each module has a polyimide inner washer with 2.67 mm ID, 0.064 mm wall, and approximately 4 mm length. The inner washer was filled with a tablet so that the disk was initially in contact with the tablet. […]

A short description of series [4]: Approximate solubility of drugs in water.

Structures can show the parent of a compound that is named as a salt.

For orientation: solubility means the concentration that dissolves in the medium under given conditions. As to `Cc1ccc(O)c([C@H](CCN(C(C)C)C(C)C)c2ccccc2)c1` [tolterodine tartrate], in the series “physchem”, the solubility is approximately 12 mg/mL.

Turning to `Nc1ccn([C@@H]2O[C@H](CO)[C@@H](O)C2(F)F)c(=O)n1` [gemcitabine], the “permeation through 0.5 mm Tecophilic film” value in series [1] (HP-93A-100 and HP-60D-60 pouches) is given as “permeated 0.5 mm Tecophilic™ film”; in series [2], “permeated 0.5 mm Tecophilic™ film in one day”. In addition, the “gemcitabine release rate, Static vs Rotator” value in series [3] is “no significant difference”.

Take `NC(N)=O` [urea]: the “permeation through 0.5 mm Tecophilic film” value in series [2] is “permeated 0.5 mm Tecophilic™ film in one day”.

Turning to `O=C(O[C@H]1C[C@H]2CC[C@@H](C1)[N+]21CCCC1)C(O)(c1ccccc1)c1ccccc1` [trospium chloride], the solubility in series [4] (37 °C, water) was approximately 500 mg/mL.

On to `Nc1ccn([C@@H]2O[C@H](CO)[C@@H](O)C2(F)F)c(=O)n1` [gemcitabine HCl], for which the “relative speed of release from pouches” value in series [1] (comparison of film grades and of drug forms) was “released faster than gemcitabine base”. This compound also had a solubility in the series “physchem” of approximately 80 mg/mL.

`Nc1ccn([C@@H]2O[C@H](CO)[C@@H](O)C2(F)F)c(=O)n1` [gemcitabine base] displayed an approximate solubility in series [4] (water at 37° C.) of approximately 15 mg/mL.
